Source: US10857123B2, “NLRP3 inhibitors for the treatment of inflammatory skin disorders” (GALDERMA RESEARCH & DEVELOPMENT, priority 2016, dated 2020)

Columns and labels:
[1] = tested on: Mouse Atopic Dermatitis Model; test: Mouse atopic dermatitis model (epicutaneous sensitization with Dermatophagoides pteronyssinus allergen); assay type: in vivo, Balb/c mice; conditions: for Insensible water loss (IWL) decrease / Thickness of the epidermis (epidermal acanthosis) change / Inflammatory score reduction: day 51; for Insensible water loss (IWL) decrease: FIG. 1; for Thickness of the epidermis (epidermal acanthosis) change: FIG. 2; for Inflammatory score reduction: FIG. 3
Experimental: Example 1: Protocol for Testing an NLRP3 Antagonist (N-((1,2,3,5,6,7-hexahydro-s-indacen-4-yl)carbamoyl)-4-(2-hydroxypropan-2-yl)furan-2-sulfonamide, Compound 3, Also Known as MCC950) on a Mouse Atopic Dermatitis Model
Female Balb/c mice were treated with the allergen Dermatophagoides pteronyssinus (DERP) in 3 cycles of epicutaneous sensitization (per patch) on the abdominal skin with 2 patches applied twice a week, followed by 2 weeks of rest, for 7 weeks. Topical treatments with an NLRP3 antagonist (compound 3, 2% in an acetone carrier) or a corticosteroid (0.1% betamethasone valerate, used as a control) were carried out 3 times over the course of the third and final week of sensitization (on days 44, 47 and 50).
An inflammatory reaction was induced by epicutaneous sensitization with patches impregnated with 100 μg of allergen in a sterile saline solution (Dermatophagoides pteronyssinus or DERP) or with a carrier applied to the abdominal skin 24 hours after shaving and left for three periods of 1 week (with a change of patch in the middle of the week), with a gap of 2 weeks between applications.
For the systemic route, the NLRP3 antagonist was administered intravenously, 200 μl, 2.5 mg/ml once a day, for the final series of epicutaneous sensitization with the allergen (D44 to D50).
For the topical administration, the test antagonist (compound 3) was formulated at 2% in an acetone carrier, applied to the sensitized skin 2 hours before the DERP patches were put in place. The topical treatments with an NLRP3 antagonist or a corticosteroid (used as a control) were carried out 3 times over the course of the third and final week of sensitization (on days 44, 47 and 50). At the time the final patch was removed (day 51), the skin and blood samples were collected.
The IWL is measured using a Tewameter on an animal the day before day 51. The Tewameter® probe measures the gradient of density of the evaporation of water from the skin indirectly by means of two sensors (temperature and relative humidity) inside a hollow cylinder. A microprocessor analyzes the values and expresses the evaporation rate in g/h/m^2.
The thickness of the epidermis is measured by histological morphometric analyses on sections 6 μm thick, stained with hematoxylin eosin (HE), originating from skin samples fixed beforehand in […].
The inflammatory score is defined visually on the basis of predefined dryness, skin rash, baldness, excoriation and lichenification scales. The mean of the five scores given to one individual mouse on a given day indicates the clinical score given on the specific day.

Mouse Psoriasiform Model = test: Mouse psoriasiform model (imiquimod / Aldara-induced skin inflammation); assay type: in vivo, Balb/c mice; conditions: topical, 3% in acetone, once a day 2 h before Aldara, FIG. 4
Experimental: Example 2: Protocol for Testing an NLRP3 Antagonist (N-((1,2,3,5,6,7-hexahydro-s-indacen-4-yl)carbamoyl)-4-(2-hydroxypropan-2-yl)furan-2-sulfonamide, Compound 3, Also Known as MCC950) on a Mouse Psoriasiform Model
The treatment protocol consists of a daily topical application of Aldara® (3.18 mg of imiquimod) for 7 days to the shaved skin of Balb/c mice. The NLRP3 antagonist was dissolved in 3% acetone and was applied once a day 2 h before the treatment with Aldara®. The clinical score is an overall classification resulting from the sum of the erythema, edema and desquamation scores, on the basis of the overall evaluation by the physician of the Lattice system, known as LS PGA (J Am Acad Dermatol. 2004 October; 51(4):563-9).
Indeed, imiquimod induces inflamed scaly skin lesions resembling the psoriasis plaque. These lesions are associated with increased epidermal proliferation, abnormal differentiation, an epidermal accumulation of neutrophils in […], neoangiogenesis and infiltrates consisting of CD4+ T cells, of CD11c (+) dendritic cells and of plasmacytoid dendritic cells. Imiquimod induces an epidermal expression of IL-23, IL-17A and IL-17F, and also an increase in Th17 spleen cells. […]

[2] = systemic route (intravenous, 200 μl, 2.5 mg/ml once a day, D44 to D50)
[3] = topical route (2% in acetone carrier, days 44, 47 and 50)

CC(C)(O)c1coc(S(=O)(=O)NC(=O)Nc2c3c(cc4c2CCC4)CCC3)c1 [Compound 3, N-((1,2,3,5,6,7-hexahydro-s-indacen-4-yl)carbamoyl)-4-(2-hydroxypropan-2-yl)furan-2-sulfonamide]
Insensible water loss (IWL) decrease [1, 2]: −60% | Thickness of the epidermis (epidermal acanthosis) change [1, 2]: −38% | Inflammatory score reduction [1, 2]: −62% | Insensible water loss (IWL) decrease [1, 3]: −42% | Thickness of the epidermis (epidermal acanthosis) change [1, 3]: −24% | Inflammatory score reduction [1, 3]: −39% | Efficacy compared with corticosteroid treatment ([1]; versus 0.1% betamethasone valerate, the corticosteroid control): quite close to the treatment with corticosteroids | Reduction of imiquimod-induced skin inflammation on the basis of the clinical score (Mouse Psoriasiform Model; day 4): −36% | Reduction of imiquimod-induced skin inflammation on the basis of the clinical score (Mouse Psoriasiform Model; day 5): −27%
